This test has as its target T1, human Y5 receptor (Homo sapiens, UniProt Q15761).
T1 construct: expressed in transfected cells; host or cells: mouse fibroblast LM(tk-) cells, e.g. L-hY5-7 (ATCC CRL-11995)
T1 sequence (Q15761 1-445): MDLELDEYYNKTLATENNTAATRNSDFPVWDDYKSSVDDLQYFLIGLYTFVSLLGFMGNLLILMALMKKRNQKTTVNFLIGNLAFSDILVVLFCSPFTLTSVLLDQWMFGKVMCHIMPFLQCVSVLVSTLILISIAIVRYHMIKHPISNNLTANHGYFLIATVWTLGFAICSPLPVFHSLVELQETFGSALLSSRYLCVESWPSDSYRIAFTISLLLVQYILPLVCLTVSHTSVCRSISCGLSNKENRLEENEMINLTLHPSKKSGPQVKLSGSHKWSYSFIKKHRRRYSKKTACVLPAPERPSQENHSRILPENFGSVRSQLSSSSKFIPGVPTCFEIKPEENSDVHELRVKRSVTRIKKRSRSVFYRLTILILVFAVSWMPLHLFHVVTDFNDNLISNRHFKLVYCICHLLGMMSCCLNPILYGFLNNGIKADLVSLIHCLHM
Kind of test: Radioligand binding to membranes, cloned human Y5 receptor. As to conditions: Table 1; read-out: Ki (nM) hNPY-5.
For `CCNc1nc(NCC2CCC(CNS(=O)(=O)c3cccc4ccccc34)CC2)nc(NC(C)C)n1` (stereo not drawn) [Example 2, N1-[4-([4-(ethylamino)-6-(isopropylamino)-1,3,5-triazin-2-yl]aminomethyl)cyclohexyl]methyl-1-naphthalenesulfonamide], the inhibitory constant (Ki) is 7 nM.
The value for `C=CCNc1nc(NCC2CCC(CNS(=O)(=O)c3cccc4ccccc34)CC2)nc(NC(C)C)n1` (stereo not drawn) [Example 3, N1-{[4-({[4-(Allylamino)-6-(isopropylamino)-1,3,5-triazin-2-yl]amino}methyl)cyclohexyl]methyl}-1-naphthalenesulfonamide] was 12 nM; that for `CC(C)Nc1nc(NCC2CCC(CNS(=O)(=O)c3cccc4ccccc34)CC2)nc(NC(C)C)n1` (stereo not drawn) [Example 4, N1-{[4-({[4,6-Di(isopropylamino)-1,3,5-triazin-2-yl]amino}methyl)cyclohexyl]methyl}-1-naphthalenesulfonamide] was 23 nM.
As for `CCCNc1nc(NCC2CCC(CNS(=O)(=O)c3cccc4ccccc34)CC2)nc(NC(C)C)n1` (stereo not drawn) [Example 5, N1-[4-([4-(isopropylamino)-6-(propylamino)-1,3,5-triazin-2-yl]aminomethyl)cyclohexyl]methyl-1-naphthalenesulfonamide], the inhibitory constant (Ki) came to 18 nM.
The value for `CCCCNc1nc(NCC2CCC(CNS(=O)(=O)c3cccc4ccccc34)CC2)nc(NC(C)C)n1` (stereo not drawn) [Example 6, N1-[4-([4-(butylamino)-6-(isopropylamino)-1,3,5-triazin-2-yl]aminomethyl)cyclohexyl]methyl-1-naphthalenesulfonamide] was 22 nM; that for `CC(C)Nc1nc(NCC2CCC(CNS(=O)(=O)c3cccc4ccccc34)CC2)nc(NC2CCC2)n1` (stereo not drawn) [Example 7, N1-[4-([4-(cyclobutylamino)-6-(isopropylamino)-1,3,5-triazin-2-yl]aminomethyl)cyclohexyl]methyl-1-naphthalenesulfonamide] was 22 nM; that for `CC(C)Nc1nc(NCC2CCC(CNS(=O)(=O)c3cccc4ccccc34)CC2)nc(NC2CC2)n1` (stereo not drawn) [Example 8, N1-[4-([4-(cyclopropylamino)-6-(isopropylamino)-1,3,5-triazin-2-yl]aminomethyl)cyclohexyl]methyl-1-naphthalenesulfonamide] was 9 nM.
`CCCCCNc1nc(NCC2CCC(CNS(=O)(=O)c3cccc4ccccc34)CC2)nc(NC(C)C)n1` (stereo not drawn) [Example 9, N1-[4-([4-(isopropylamino)-6-(pentylamino)-1,3,5-triazin-2-yl]aminomethyl)cyclohexyl]methyl-1-naphthalenesulfonamide]: the inhibition constant (Ki) was determined as 6 nM.
For the molecule `CC(C)Nc1nc(NCCC#N)nc(NCC2CCC(CNS(=O)(=O)c3cccc4ccccc34)CC2)n1` (stereo not drawn) [Example 10, N1-[4-([4-[(2-cyanoethyl)amino]-6-(isopropylamino)-1,3,5-triazin-2-yl]aminomethyl)cyclohexyl]methyl-1-naphthalenesulfonamide], the inhibition constant Ki was determined as 81 nM.
In the case of `CC(C)Nc1nc(NCCO)nc(NCC2CCC(CNS(=O)(=O)c3cccc4ccccc34)CC2)n1` (stereo not drawn) [Example 11, N1-[4-([4-[(2-hydroxyethyl)amino]-6-(isopropylamino)-1,3,5-triazin-2-yl]aminomethyl)cyclohexyl]methyl-1-naphthalenesulfonamide], the Ki stood at 35 nM.
In the case of `COCCNc1nc(NCC2CCC(CNS(=O)(=O)c3cccc4ccccc34)CC2)nc(NC(C)C)n1` (stereo not drawn) [Example 12, N1-(4-[(4-(isopropylamino)-6-[(2-methoxyethyl)amino]-1,3,5-triazin-2-ylamino)methyl]cyclohexylmethyl)-1-naphthalenesulfonamide] it was 18 nM; in that of `COCCCNc1nc(NCC2CCC(CNS(=O)(=O)c3cccc4ccccc34)CC2)nc(NC(C)C)n1` (stereo not drawn) [Example 13, N1-(4-[(4-(isopropylamino)-6-[(3-methoxypropyl)amino]-1,3,5-triazin-2-ylamino)methyl]cyclohexylmethyl)-1-naphthalenesulfonamide], 22 nM.
The value for `CC(C)Nc1nc(NCCN(C)C)nc(NCC2CCC(CNS(=O)(=O)c3cccc4ccccc34)CC2)n1` (stereo not drawn) [Example 14, N1-{[4-({[4-{[2-(dimethylamino)ethyl]amino}-6-(isopropylamino)-1,3,5-triazin-2-yl]amino}methyl)cyclohexyl]methyl}-1-naphthalenesulfonamide] was 194 nM; that for `CC(C)Nc1nc(NCCCn2ccnc2)nc(NCC2CCC(CNS(=O)(=O)c3cccc4ccccc34)CC2)n1` (stereo not drawn) [Example 15, N1-[4-([4-[3-(1H-1-imidazolyl)propyl]amino-6-(isopropylamino)-1,3,5-triazin-2-yl]aminomethyl)cyclohexyl]methyl-1-naphthalenesulfonamide] was 83 nM; that for `COc1ccc(CCNc2nc(NCC3CCC(CNS(=O)(=O)c4cccc5ccccc45)CC3)nc(NC(C)C)n2)cc1` (stereo not drawn) [Example 16, N1-({4-[({4-(isopropylamino)-6-[(4-methoxyphenethyl)amino]-1,3,5-triazin-2-yl}amino)methyl]cyclohexyl}methyl)-1-naphthalenesulfonamide] was 313 nM.
For `CC(C)Nc1nc(NCC2CCC(CNS(=O)(=O)c3cccc4ccccc34)CC2)nc(N(C)C)n1` (stereo not drawn) [Example 17, N1-{[4-({[4-(dimethylamino)-6-(isopropylamino)-1,3,5-triazin-2-yl]amino}methyl)cyclohexyl]methyl}-1-naphthalenesulfonamide], the inhibitory constant (Ki) worked out at 27 nM.
In the case of `CCN(C)c1nc(NCC2CCC(CNS(=O)(=O)c3cccc4ccccc34)CC2)nc(NC(C)C)n1` (stereo not drawn) [Example 18, N1-[4-([4-[ethyl(methyl)amino]-6-(isopropylamino)-1,3,5-triazin-2-yl]aminomethyl)cyclohexyl]methyl-1-naphthalenesulfonamide] it was 32 nM; in that of `CCN(CC)c1nc(NCC2CCC(CNS(=O)(=O)c3cccc4ccccc34)CC2)nc(NC(C)C)n1` (stereo not drawn) [Example 19, N1-[4-([4-(diethylamino)-6-(isopropylamino)-1,3,5-triazin-2-yl]aminomethyl)cyclohexyl]methyl-1-naphthalenesulfonamide], 53 nM; in that of `CC(C)Nc1nc(NCC2CCC(CNS(=O)(=O)c3cccc4ccccc34)CC2)nc(N2CCCC2)n1` (stereo not drawn) [Example 20, N1-[4-([4-(isopropylamino)-6-tetrahydro-1H-1-pyrrolyl-1,3,5-triazin-2-yl]aminomethyl)cyclohexyl]methyl-1-naphthalenesulfonamide], 19 nM.
Regarding `COC[C@@H]1CCCN1c1nc(NCC2CCC(CNS(=O)(=O)c3cccc4ccccc34)CC2)nc(NC(C)C)n1` (stereo partly drawn) [Example 21, N1-(4-[(4-(isopropylamino)-6-[(2S)-2-(methoxymethyl)tetrahydro-1H-1-pyrrolyl]-1,3,5-triazin-2-ylamino)methyl]cyclohexylmethyl)-1-naphthalenesulfonamide], the inhibition constant (Ki) was determined as 71 nM.
As for `CC(C)Nc1nc(NCC2CCC(CNS(=O)(=O)c3cccc4ccccc34)CC2)nc(N2CCCCC2)n1` (stereo not drawn) [Example 22, N1-{[4-({[4-(isopropylamino)-6-piperidino-1,3,5-triazin-2-yl]amino}methyl)cyclohexyl]methyl}-1-naphthalenesulfonamide], the Ki worked out at 38 nM.
The value for `CC(C)Nc1nc(NCC2CCC(CNS(=O)(=O)c3cccc4ccccc34)CC2)nc(N2CCCCC2C)n1` (stereo not drawn) [Example 23, N1-[4-([4-(isopropylamino)-6-(2-methylpiperidino)-1,3,5-triazin-2-yl]aminomethyl)cyclohexyl]methyl-1-naphthalenesulfonamide] was 68 nM; that for `CC(C)Nc1nc(NCC2CCC(CNS(=O)(=O)c3cccc4ccccc34)CC2)nc(N2CCOCC2)n1` (stereo not drawn) [Example 24, N1-[4-([4-(isopropylamino)-6-morpholino-1,3,5-triazin-2-yl]aminomethyl)cyclohexyl]methyl-1-naphthalenesulfonamide] was 40 nM.
The value for `CC(C)Nc1nc(NCC2CCC(CNS(=O)(=O)c3cccc4ccccc34)CC2)nc(N2C[C@@H](C)O[C@@H](C)C2)n1` (stereo partly drawn) [Example 25, N1-{[4-({[4-[(2R,6S)-2,6-dimethyl-1,4-oxazinan-4-yl]-6-(isopropylamino)-1,3,5-triazin-2-yl]amino}methyl)cyclohexyl]methyl}-1-naphthalenesulfonamide] was 135 nM; that for `CC(C)Nc1nc(NCC2CCC(CNS(=O)(=O)c3cccc4ccccc34)CC2)nc(N(C)CCO)n1` (stereo not drawn) [Example 26, N1-[4-([4-[(2-hydroxyethyl)(methyl)amino]-6-(isopropylamino)-1,3,5-triazin-2-yl]aminomethyl)cyclohexyl]methyl-1-naphthalenesulfonamide] was 86 nM.
The value for `CC(=O)N1CCN(c2nc(NCC3CCC(CNS(=O)(=O)c4cccc5ccccc45)CC3)nc(NC(C)C)n2)CC1` (stereo not drawn) [Example 27, N1-{[4-({[4-(4-acetylpiperazino)-6-(isopropylamino)-1,3,5-triazin-2-yl]amino}methyl)cyclohexyl]methyl}-1-naphthalenesulfonamide] was 31 nM; that for `CC(C)Nc1nc(NCC2CCC(CNS(=O)(=O)c3cccc4ccccc34)CC2)nc(N2CCN(C(C)C)CC2)n1` (stereo not drawn) [Example 28, N1-{[4-({[4-(isopropylamino)-6-(4-isopropylpiperazino)-1,3,5-triazin-2-yl]amino}methyl)cyclohexyl]methyl}-1-naphthalenesulfonamide] was 22 nM.

The values above are taken from patent US7189720B2 (H. Lundbeck A/S, priority 1999, dated 2007).
